According to ChEMBL document CHEMBL5137049, “Discovery of a Novel Small-Molecule Inhibitor Disrupting TRBP-Dicer Interaction against Hepatocellular Carcinoma via the Modulation of microRNA Biogenesis” (J Med Chem, 2022):
Active and inactive are the calls of the source.

Columns and labels:
[1] = tested on: Mus musculus; test: Downregulation of vimentin expression in liver of SCID mouse xenografted with human SK-HEP1 cells at 10 to 50 mg/kg, ip administered every 2 days for 4 weeks by immunohistochemical staining analysis; format: functional, organism-based; conditions: dose 10-50 mg/kg
[2] = tested on: HeLa; test: Upregulation of pri-miR-30a in human HeLa cells at 10 uM incubated for 6 hrs by qRT-PCR analysis; format: functional, cell-based
[3] = tested on: HeLa; test: Downregulation of miR-214 expression in human HeLa cells at 10 uM incubated for 6 hrs by qRT-PCR analysis; format: functional
[4] = Acute toxicity in KM mouse assessed as effect on brain at 100 mg/kg, ip administered for 7 consecutive days by hematoxyin-eosin staining based analysis; format: organism-based; conditions: in vivo, 168 h, time 7 day
[5] = tested on: HCCLM3; test: Inhibition of cell invasion in human HCLLM3 cells at 1 to 25 uM measured after 24 hrs by crystal violet staining based transwell assay; format: functional; conditions: dose 1-25 µM
[6] = tested on: SK-HEP1; test: Downregulation of miR-18a expression in human SK-HEP1 cells at 10 uM by qRT-PCR analysis; format: functional, cell-based
[7] = tested on: MHCC97-L; test: Antitumor activity against human MHCC97-L cells xenografted in SCID mouse assessed as reduction in tumor proliferation at 10 to 50 mg/kg, ip administered every 2 days for 4 weeks; format: functional, organism-based; conditions: dose 10-50 mg/kg
[8] = tested on: SK-HEP1; test: Downregulation of vimentin expression level in TRBP siRNA transfected human SK-HEP1 cells incubated for 48 hrs by Western blotting analysis; format: functional, cell-based
[9] = tested on: SK-HEP1; test: Downregulation of RHOB expression in human SK-HEP1 cells at 1 to 25 uM by Western blotting analysis; format: functional, cell-based; conditions: dose 1-25 µM
[10] = tested on: HepG2; test: Downregulation of miR-122 expression in human HepG2 cells at 10 uM incubated for 6 hrs by qRT-PCR analysis; format: functional
[11] = tested on: MHCC97-L; test: Inhibition of cell invasion in human MHCC97-L cells at 1 to 25 uM measured after 24 hrs by crystal violet staining based transwell assay; format: functional; conditions: dose 1-25 µM
[12] = tested on: SK-HEP1; test: Upregulation of PTEN protein expression in human SK-HEP1 cells incubated for 24 hrs by Western blotting analysis; format: functional, cell-based; conditions: dose 1-50 µM, DDE = dose-dependent effect
[13] = tested on: SK-HEP1; test: Upregulation of PDCD4 protein expression in human SK-HEP1 cells incubated for 24 hrs by Western blotting analysis; format: functional, cell-based; conditions: dose 1-50 µM, DDE = dose-dependent effect
[14] = tested on: MHCC97-L; test: Downregulation of miR-18a expression in human MHCC97-L cells at 10 uM by qRT-PCR analysis; format: functional, cell-based
[15] = tested on: SK-HEP1; test: Downregulation of mature miR-21 expression in human SK-HEP1 cells at 10 uM incubated for 24 hrs; format: functional, cell-based
[16] = tested on: HCCLM3; test: Downregulation of miR-18a expression in human HCCLM3 cells at 10 uM by qRT-PCR analysis; format: functional, cell-based
[17] = tested on: HCCLM3; test: Antiproliferative activity against human HCCLM3 cells assessed as inhibition of cell growth incubated for 72 hrs by CellTiter-luminescence assay; format: functional, cell-based
[18] = tested on: MHCC97-L; test: Inhibition of cell migration in human MHCC97-L cells at 1 to 25 uM measured after 24 hrs by crystal violet staining based transwell assay; format: functional; conditions: dose 1-25 µM
[19] = Inhibition of microRNA in human HeLa cells transfected with pCI-neo-luciferase-miR-21 plasmid assessed as change in luciferase signal incubated for 24 hrs by luciferase reporter assay; format: cell-based
[20] = tested on: HepG2; test: Upregulation of pre-miR-221 in human HepG2 cells at 10 uM incubated for 6 hrs by qRT-PCR analysis; format: functional, cell-based
[21] = tested on: SK-HEP1; test: Downregulation of PTEN protein expression in pCMV3-TRBP transfected human SK-HEP1 cells at 10 uM incubated for 24 hrs by Western blotting analysis; format: functional, cell-based
[22] = tested on: HCCLM3; test: Inhibition of cell migration in human HCCLM3 cells assessed as reduction of cell mobility at 1 to 25 uM measured at 24 hrs by well scratch method; format: functional, cell-based; conditions: dose 1-25 µM
[23] = Inhibition of microRNA in human HeLa cells transfected with pCI-neo-luciferase-miR-21 plasmid assessed as increase in luciferase activity by luciferase reporter assay; format: cell-based
[24] = tested on: HepG2; test: Downregulation of miR-221 expression in human HepG2 cells at 10 uM incubated for 6 hrs by qRT-PCR analysis; format: functional
[25] = tested on: MHCC97-L; test: Upregulation of miR-125 expression in human MHCC97-L cells at 10 uM by qRT-PCR analysis; format: functional, cell-based
[26] = tested on: HCCLM3; test: Upregulation of let-7 expression in human HCCLM3 cells at 10 uM by qRT-PCR analysis; format: functional, cell-based
[27] = Toxicity in SCID mouse xenografted with human MHCC97-L cells assessed as effect on kidney at 10 to 50 mg/kg, ip administered every 2 days for 4 weeks by hematoxyin-eosin staining based analysis; format: organism-based; conditions: in vivo, 672 h, dose 10-50 mg/kg
[28] = tested on: SK-HEP1; test: Upregulation of miR-125 expression in human SK-HEP1 cells at 10 uM by qRT-PCR analysis; format: functional, cell-based
[29] = tested on: HeLa; test: Upregulation of pri-miR-214 in human HeLa cells at 10 uM incubated for 6 hrs by qRT-PCR analysis; format: functional, cell-based
[30] = species on record: Homo sapiens; test: Effect on ADAR1-Dicer interaction (unknown origin) assessed as increase in binding of ADAR1 to Dicer at 1 to 25 uM by Western blotting analysis; conditions: dose 1-25 µM
[31] = tested on: HepG2; test: Upregulation of pri-miR-221 in human HepG2 cells at 10 uM incubated for 6 hrs by qRT-PCR analysis; format: functional, cell-based
[32] = tested on: MHCC97-L; test: Upregulation of let-7 expression in human MHCC97-L cells at 10 uM by qRT-PCR analysis; format: functional, cell-based
[33] = tested on: HeLa; test: Upregulation of pre-miR-30a in human HeLa cells at 10 uM incubated for 6 hrs by qRT-PCR analysis; format: functional, cell-based
[34] = tested on: HCCLM3; test: Downregulation of miR-135 expression in human HCCLM3 cells at 10 uM by qRT-PCR analysis; format: functional, cell-based
[35] = tested on: SK-HEP1; test: Upregulation of TIMP4 expression in human SK-HEP1 cells at 1 to 25 uM by Western blotting analysis; format: functional, cell-based; conditions: dose 1-25 µM

CCOC(=O)c1nc(-c2ccc(OC)cc2)oc1C
60%: Activity [3] | Activity [10] | Activity [24]
Non-Toxic: Activity [4] | Activity [27]
active: Activity [1] | Activity [2] | inhibition [5] | Activity [6] | Activity [7] | Activity [8] | Activity [9] | inhibition [11] | Activity [12] Dde | Activity [13] Dde | Activity [14] | Activity [15] | Activity [16] | Activity [17] | inhibition [18] | Activity [20] | Activity [21] | inhibition [22] | Activity [25] | Activity [26] | Activity [28] | Activity [29] | Activity [30] | Activity [31] | Activity [32] | Activity [33] | Activity [34] | Activity [35]
1380 nM: EC50 [19] | EC50 [23]
